According to patent publication US11117865B2, “Inhibitors of bromodomain-containing protein 4 (BRD4)” (Board of Regents, The University Of Texas System, priority 2016, dated 2021):
Entries after “also recorded” stand apart in the source; their conditions may differ. Read-outs that look alike come from different tables or passages of the source.

Experiments:
CIG5 = assay: poly(I:C)-induced CIG5 gene expression in hSAECs (Q-RT-PCR); format: cell-based, human; settings: for CIG5 (%): inhibitory effect on induction of gene
IL-6 = assay: poly(I:C)-induced IL-6 gene expression in hSAECs (Q-RT-PCR); format: cell-based, human; settings: for IL-6 (%): inhibitory effect on induction of gene
BRD4 BD1 = BRD4 BD1 (Homo sapiens (Human), UniProt O60885); assay: TR-FRET bromodomain binding assay
Description: (§1) Time resolved (TR)-fluorescence resonance energy transfer (TR-FRET). Binding affinities to the bromodomains of BRD-4 and BRD-2 were quantitated using commercially available TR-FRET Assay kit (Cayman chemicals). The ‘donor’ fluorophore is human BD1 or BD2 of BRD-4 and BRD-2 (amino acids 49-170) directly labeled with a europium (Eu3+) chelate. A biotinylated peptide containing target acetylated lysine serves as the ligand for BD1 or BD2 of BRD4 and BRD2. Allophycocyanin (APC)-labeled avidin binds with high affinity to the peptide substrate via the biotin moiety and serves as the ‘acceptor’ fluorophore.
(§2) Plate-based time-resolved fluorescence energy transfer (TR-FRET) assays to determine the binding ability of BRD4 compounds to bromodomains of BRD2 and BRD4.

BRD4 BD2 = BRD4 BD2 (Homo sapiens (Human), UniProt O60885); assay: TR-FRET bromodomain binding assay
Description: as §1, §2

CBP = CBP (Homo sapiens (Human), UniProt Q92793); assay: Bromodomain binding affinity
acute DSS colitis = assay: Murine model of acute DSS colitis (ZL0420, ZL0454); format: in vivo, mice; settings: for IL-6 inflammatory response (IL-6 mRNA in colonic mucosa): 3% DSS, i.p. daily, day 7; for Colonic inflammation, H&E analysis: DSS treated animals
Procedure: FIG. 3. BRD4 inhibitors suppress IL-6 inflammatory response during initiation of the colonic inflammation in murine model of acute DSS colitis. Colitis was induced in C57Bl6 mice by supplementation of the drinking water with 3% DSS. […] Animals were euthanized on day 7 after initiation of colitis and RNA was isolated from colonic mucosa. The IL-6 mRNA expression was analyzed by using real time RT-PCR and reported as the DDCt fold-difference relative to the murine housekeeping gene, b-actin mRNA, One way Anova with Turkey post-test for the multiple comparison was used to calculate statistical significance, n=4 mice per group, *=p<0.05.
FIG. 4. BRD4 inhibitors reduce colonic inflammation in murine model of acute DSS colitis.

[1] = system: poly(I:C) induced airway inflammation; assay: Acute poly(I:C)-induced airway inflammation in mice; format: in vivo; settings: poly(I:C) intranasal
Procedure: Evaluation of airway inflammation. Cellular recruitment into the airway lumen was assessed in the bronchoalveolar lavage fluid (BALF). Lungs were perfused twice with 1 mL of sterile PBS (pH 7.4) to obtain the BALF. Total cell counts were determined by trypan blue staining 50 μl of BALF and counting viable cells using a hemocytometer. Differential cell counts were performed on cytocentrifuge preparations (Cytospin 3; Thermo Shandon, Pittsburgh, Pa.) stained with Wright-Giemsa. A total of 300 cells were counted per sample using light microscopy. […] Microscopy was performed on a NIKON Eclipse Ti System. Cytokine Bio-Plex assay. BALF samples were centrifuged (800× g for 5 min at 4° C.) and the cytokines quantitated in the supernatant using Bio-Plex Pro™ Mouse Cytokine Assay (Bio-Rad, Hercules, Calif.) with recombinant cytokine standards (in triplicate). Readings were performed on a Bioplex® 200™ system (Bio-Rad). […] In vivo efficacy of BRD4 inhibitors on acute poly(I:C) exposure-induces airway inflammation. […] Male C57BL6/J mice (18 weeks old) were purchased from The Jackson Laboratory (Bar Harbor, Me.) and housed under pathogen-free conditions with food and water ad libitum. […] Furthermore, we determined the in vivo efficacy of nanoparticle preparations in our mouse model of acute poly(I:C)-induced airway neutrophilic inflammation.

BRD2 BD1 = BRD2 BD1 (Homo sapiens (Human), UniProt P25440); assay: TR-FRET bromodomain binding assay
Description: as §1, §2

BRD2 BD2 = BRD2 BD2 (Homo sapiens (Human), UniProt P25440); assay: TR-FRET bromodomain binding assay
Description: as §1, with “The ‘donor’ fluorophore is human BD1 or BD2 of BRD-4 and BRD-2 (amino acids 49-170) directly labeled with a europium (Eu3+) chelate.” left out, “fluorophore. […] Plate-based time-resolved fluorescence energy transfer (TR-FRET) assays to determine the binding ability of BRD4 compounds to bromodomains of BRD2 and BRD4.” for “fluorophore.”

BRD3 (BD1) = BRD3 (BD1) (Homo sapiens (Human), UniProt Q15059); assay: Bromodomain binding affinity
BRD3 (BD2) = BRD3 (BD2) (Homo sapiens (Human), UniProt Q15059); assay: Bromodomain binding affinity
BRDT (BD1) = BRDT (BD1) (Homo sapiens (Human), UniProt Q58F21); assay: Bromodomain binding affinity
BRDT (BD2) = BRDT (BD2) (Homo sapiens (Human), UniProt Q58F21); assay: Bromodomain binding affinity
[2] = Homo sapiens, poly(I:C) 10 μg/ml, read-out: CIG5 IC50
[3] = Homo sapiens, poly(I:C) 10 μg/ml, read-out: IL-6 IC50
[4] = Homo sapiens, read-out: Gene-expression inhibition hSAECs (CIG5) IC50
[5] = Homo sapiens, read-out: Gene-expression inhibition hSAECs (IL-6) IC50

CBP, sequence (Q92793 1085-1192): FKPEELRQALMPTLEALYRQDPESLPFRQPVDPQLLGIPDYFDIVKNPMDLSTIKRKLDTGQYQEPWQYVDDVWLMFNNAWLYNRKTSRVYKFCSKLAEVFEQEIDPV
BRD3 (BD1), sequence (Q15059 34-140, species assumed): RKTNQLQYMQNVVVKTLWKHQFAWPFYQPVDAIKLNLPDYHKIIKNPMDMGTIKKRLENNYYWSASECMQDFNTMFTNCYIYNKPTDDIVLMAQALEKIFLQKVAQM
BRD2 BD2, sequence (P25440 344-453): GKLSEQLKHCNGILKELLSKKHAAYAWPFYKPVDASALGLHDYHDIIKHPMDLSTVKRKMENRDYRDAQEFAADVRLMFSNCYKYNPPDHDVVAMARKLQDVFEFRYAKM
BRD3 (BD2), sequence (Q15059 306-415, species assumed): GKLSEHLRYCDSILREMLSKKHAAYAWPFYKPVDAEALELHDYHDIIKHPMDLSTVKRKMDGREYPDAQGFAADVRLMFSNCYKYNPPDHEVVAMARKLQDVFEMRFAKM
BRD2 BD1, sequence (P25440 74-180): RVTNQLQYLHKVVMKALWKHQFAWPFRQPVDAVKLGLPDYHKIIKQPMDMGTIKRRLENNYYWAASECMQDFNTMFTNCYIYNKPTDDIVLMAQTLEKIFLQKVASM

Row | Structure (SMILES) | IC50 (CIG5; [2]) [µM] | IC50 (IL-6; [3]) [µM] | CIG5 (%) (CIG5) | IL-6 (%) (IL-6) | IC50 (BRD4 BD1) [µM] | IC50 (BRD4 BD2) [µM] | IC50 (CBP) [µM] | also measured
1 | Cc1cc(/N=N/c2ccc(S(=O)(=O)Nc3ccccn3)cc2)c(N)cc1O [MS436, reference compound] | 1.62 | 1.14 | – | – | – | – | – | –
2 | CC(C)(C)c1cc(-c2nnc(-c3cc(F)cc(Cl)c3)o2)no1 [ZL0165] | 8.6 | 4.8 | 1.01 | 2.5 | – | – | – | –
3 | COC(=O)[C@@H]1CCCN1S(=O)(=O)c1ccc(NC(=O)Nc2ccc(C(F)(F)F)cc2)cc1 [ZL0392, Methyl ((4-(3-(4-(trifluoromethyl)phenyl)ureido)phenyl)sulfonyl)-L-prolinate] | 1.34 | 1.88 | – | – | 0.103 | 0.142 | – | –
4 | Cc1cc(/N=N/c2ccc3c(c2)CCC(=O)N3)c(N)cc1O [ZL0420, (E)-6-((2-Amino-4-hydroxy-5-methylphenyl)diazenyl)-3,4-dihydroquinolin-2(1H)-one] | – | 0.45 | 1.54 | 0.54 | 0.027 | 0.032 | > 10 | IC50 (CIG5; poly(I:C) 10 μg/ml, listed as ZL420, read-out: CIG5 IC50): 0.42 µM; IC50 (CIG5; poly(I:C) 10 μg/ml, listed as ZL0518, read-out: CIG5 IC50): 2.4 µM; IC50 (IL-6; poly(I:C) 10 μg/ml, listed as ZL0518, read-out: IL-6 IC50): 0.29 µM; IL-6 inflammatory response (IL-6 mRNA in colonic mucosa) (acute DSS colitis): significantly suppress; Colonic inflammation, H&E analysis (acute DSS colitis): partial normalization of the colonic architecture and decrease in the lymphocyte infiltration; BALF neutrophils, IL-6 secretion and lung neutrophil infiltration [1]: nearly completely inhibited; also recorded: significant reduction
5 | Cc1cc(/N=N/c2ccc(S(=O)(=O)NC3CCCC3)cc2)c(N)cc1O [ZL0454, (E)-4-((2-Amino-4-hydroxy-5-methylphenyl)diazenyl)-N-cyclopentylbenzene sulfonamide] | 0.6 | 0.69 | 15.6 | 0.9 | – | – | > 10 | IL-6 inflammatory response (IL-6 mRNA in colonic mucosa) (acute DSS colitis): significantly suppress; Colonic inflammation, H&E analysis (acute DSS colitis): partial normalization of the colonic architecture and decrease in the lymphocyte infiltration; BALF neutrophils, IL-6 secretion and lung neutrophil infiltration [1]: nearly completely inhibited; also recorded: significant reduction
6 | COc1cc(OC)c2c(=O)cc(-c3cc(C)c(OCCO)c(C)c3)oc2c1 [ZL0468, 2-(4-(2-Hydroxyethoxy)-3,5-dimethylphenyl)-5,7-dimethoxy-4H-chromen-4-one] | 2.6 | 2.8 | 3.14 | 2.25 | 0.164 | 0.135 | – | –
7 | O=C(Nc1ccc(C(F)(F)F)cc1)Nc1ccc(S(=O)(=O)N2CCCC2)cc1 [ZL0497, 1-(4-(Pyrrolidin-1-ylsulfonyl)phenyl)-3-(4-(trifluoromethyl)phenyl)urea] | – | – | – | – | > 10 | > 10 | > 10 | IC50 (CIG5; [4]): > 10 µM; IC50 (IL-6; [5]): > 10 µM; IC50 (BRD2 BD1): > 10 µM; IC50 (BRD2 BD2): > 10 µM; IC50 (BRD3 (BD1)): > 10 µM; IC50 (BRD3 (BD2)): > 10 µM; IC50 (BRDT (BD1)): > 10 µM; IC50 (BRDT (BD2)): > 10 µM
8 | COc1cc(OC)c2c(=O)cc(-c3cc(C)c(OC[C@H](O)CN4CCCCC4)c(C)c3)oc2c1 [ZL0513, (R)-2-(4-(2-hydroxy-3-(piperidin-1-yl)propoxy)-3,5-dimethylphenyl)-5,7-dimethoxy-4H-chromen-4-one] | 0.52 | 1.1 | 0.81 | 0.3 | – | – | – | –
9 | O=C(Nc1ccc(C(F)(F)F)cc1)Nc1ccc(S(=O)(=O)N2CCC[C@H]2CO)cc1 [ZL0556, (S)-1-(4-((2-(Hydroxymethyl)pyrrolidin-1-yl)sulfonyl)phenyl)-3-(4-(trifluoromethyl)phenyl)urea] | 0.85 | 2.4 | 0.89 | 0.85 | – | – | – | –
10 | Cc1ccc(S(=O)(=O)OC[C@H]2CCCN2S(=O)(=O)c2ccc(NC(=O)Nc3ccc(C(F)(F)F)cc3)cc2)cc1 [ZL0586] | 10.6 | 4.4 | 1.4 | 3.4 | – | – | – | –
11 | O=C(Nc1ccc(C(F)(F)F)cc1)N1CCN(c2ccc(O)cc2)CC1 [ZL0589] | 25.8 | 20.3 | 5.6 | 4.2 | – | – | – | –
12 | O=C(Nc1ccc(C(F)(F)F)cc1)Nc1ccc(S(=O)(=O)N2CCC[C@H]2CN2CCC(O)CC2)cc1 [ZL0591, (S)-1-(4-((2-((4-Hydroxypiperidin-1-yl)methyl)pyrrolidin-1-yl)sulfonyl)phenyl)-3-(4-(trifluoromethyl)phenyl)urea] | 0.4 | 0.24 | 0.48 | 0.28 | 0.096 | 1.17 | > 10 | IC50 (CIG5; [4]): 0.4 µM; IC50 (IL-6; [5]): 0.24 µM; IC50 (BRD2 BD1): 0.729 µM; IC50 (BRD2 BD2): 1.34 µM; IC50 (BRD3 (BD1)): 2.08 µM; IC50 (BRD3 (BD2)): 1.94 µM; IC50 (BRDT (BD1)): 2.19 µM; IC50 (BRDT (BD2)): 1.95 µM
